Legend:
Format in all cases: in vivo
[1] = tested on: diamondback moth (Plutella xylostella); assay: Test A: control of diamondback moth, foliar spray on radish plant
Text: For evaluating control of diamondback moth (Plutella xylostella) the test unit consisted of a small open container with a 12-14-day-old radish plant inside. This was pre-infested with 10-15 neonate larvae on a piece of insect diet by use of a core sampler to remove a plug from a sheet of hardened insect diet having many larvae growing on it and transfer the plug containing larvae and diet to the test unit. The larvae moved onto the test plant as the diet plug dried out.
Test compounds or mixtures were formulated using a solution containing 10% acetone, 90% water and 300 ppm X-77™ Spreader Lo-Foam Formula non-ionic surfactant containing alkylarylpolyoxyethylene, free fatty acids, glycols and 2-propanol (Loveland Industries, Inc. Greeley, Colo., USA). The formulated compounds or mixtures were applied in 1 mL of liquid through a SUJ2 atomizer nozzle with ⅛ JJ custom body (Spraying Systems Co. Wheaton, Ill., USA) positioned 1.27 cm (0.5 inches) above the top of each test unit. […] For experimental mixtures in these tests, to obtain the desired mixture concentrations of each compound, twice the desired concentration of each of the two mixture partner compounds were mixed together in equal volumes.
After spraying of the formulated test compound or mixture, each test unit was allowed to dry for 1 hour and then a black, screened cap was placed on top. The test units were held for 6 days in a growth chamber at 25° C. and 70% relative humidity. Plant feeding damage was then visually assessed based on foliage consumed.

[2] = tested on: western flower thrips (Frankliniella occidentalis Pergande); assay: Test G: control of western flower thrips through contact and/or systemic means, bean plant (mixtures)
Protocol: (§1) Test compounds or mixtures were formulated using a solution containing 10% acetone, 90% water and 300 ppm X-77™ Spreader Lo-Foam Formula non-ionic surfactant containing alkylarylpolyoxyethylene, free fatty acids, glycols and 2-propanol (Loveland Industries, Inc. Greeley, Colo., USA). The formulated compounds or mixtures were applied in 1 mL of liquid through a SUJ2 atomizer nozzle with ⅛ JJ custom body (Spraying Systems Co. Wheaton, Ill., USA) positioned 1.27 cm (0.5 inches) above the top of each test unit. All experimental compounds in these tests were sprayed at 10 ppm replicated three times. For experimental mixtures in these tests, to obtain the desired mixture concentrations of each compound, twice the desired concentration of each of the two mixture partner compounds were mixed together in equal volumes.
For evaluating control of the western flower thrips (Frankliniella occidentalis Pergande) through contact and/or systemic means, each test unit consisted of a small open container with a 5- to 7-day-old bean (var. Soleil) plant inside.
Test mixtures were formulated and sprayed with 3 replications as described for Test A. After spraying, the test units were allowed to dry for 1 hour, 22 to 27 adult thrips were added to each unit and then a black, screened cap was placed on top. The test units were held for 7 days at 25° C. and 45-55% relative humidity. The amount of plant damage for each test unit was rated to determine the percent plant protection.

[3] = tested on: green peach aphid (Myzus persicae); assay: Test C: control of green peach aphid through contact and/or systemic means, radish plant
Protocol: as §1
For evaluating control of green peach aphid (Myzus persicae) through contact and/or systemic means, the test unit consisted of a small open container with a 12- to 15-day-old radish plant inside. This was pre-infested by placing on a leaf of the test plant 30-40 aphids on a piece of leaf excised from a culture plant (cut-leaf method). The larvae moved onto the test plant as the leaf piece desiccated. After pre-infestation, the soil of the test unit was covered with a layer of sand.
All test compounds were formulated and sprayed at 50 ppm as described for Test A and replicated three times. Test mixtures were formulated as described for Test A and replicated three times. After spraying of the formulated test compound or mixture, each test unit was allowed to dry for 1 hour and then a black, screened cap was placed on top. The test units were held for 6 days in a growth chamber at 19-21° C. and 50-70% relative humidity. Dead and total number of aphids were counted in each test unit to determine percent mortality.

[4] = tested on: corn planthopper (Peregrinus maidis); assay: Test F: control of corn planthopper through contact and/or systemic means, corn plant (mixtures)
Protocol: as §1
For evaluating control of corn planthopper (Peregrinus maidis) through contact and/or systemic means, each test unit consisted of a small open cylindrical container with a 3- to 4 day-old corn (maize) plant (spike) inside. White sand was added to the top of the soil prior to application. Test mixtures were formulated and sprayed with 3 replications as described for Test A. After spraying, the test units were allowed to dry for 1 hour before they were post-infested with 10 to 20 corn planthoppers (18- to 20-day-old nymphs) by sprinkling them onto the sand with a salt shaker. A black, screened cap was placed on the top of each container. The test units were held for 6 days in a growth chamber at 19-21° C. and 50-70% relative humidity. Dead and total number of corn planthoppers were counted in each test unit to determine percent mortality.

## Cc1cc(Cl)cc(C(=O)NCC2CC2)c1NC(=O)c1cc(Br)nn1-c1ncccc1Cl [Compound 2]
[1]; 0.03 ppm
  % protection (obs): 37%
[1]; 0.04 ppm
  % protection (obs): 77%
[1]; 0.06 ppm
  % protection (obs): 93%
[2]; 5 ppm
  % protection (obs): 20%
[2]; 150 ppm
  % protection (obs): 27%
[2]; 250 ppm
  % protection (obs): 53%
[3]; 8 ppm
  Mortality (obs): 4%
[3]; 50 ppm
  Mortality (obs): 17%
[3]; 250 ppm
  Mortality (obs): 76%
[4]; 30 ppm
  Mortality (obs): 2%
[4]; 100 ppm
  Mortality (obs): 10%
[4]; 250 ppm
  Mortality (obs): 31%

## Thiamethoxam
[1]; 30 ppm
  % protection (obs): 43%
[1]; 40 ppm
  % protection (obs): 73%
[1]; 50 ppm
  % protection (obs): 90%
[2]; 5 ppm
  % protection (obs): 0%
[2]; 70 ppm
  % protection (obs): 77%
[2]; 250 ppm
  % protection (obs): 100%
[3]; 0.2 ppm
  Mortality (obs): 44%
[3]; 0.4 ppm
  Mortality (obs): 73%
[3]; 0.6 ppm
  Mortality (obs): 87%
[4]; 0.2 ppm
  Mortality (obs): 19%
[4]; 0.4 ppm
  Mortality (obs): 73%
[4]; 0.6 ppm
  Mortality (obs): 100%

## Imidacloprid
[1]; 0.8 ppm
  % protection (obs): 73%
[1]; 17 ppm
  % protection (obs): 80%
[1]; 50 ppm
  % protection (obs): 90%
[2]; 11 ppm
  % protection (obs): 27%
[2]; 77 ppm
  % protection (obs): 40%
[2]; 250 ppm
  % protection (obs): 90%
[3]; 0.08 ppm
  Mortality (obs): 5%
[3]; 0.15 ppm
  Mortality (obs): 44%
[3]; 0.3 ppm
  Mortality (obs): 50%
[4]; 0.08 ppm
  Mortality (obs): 2%
[4]; 0.2 ppm
  Mortality (obs): 10%
[4]; 0.8 ppm
  Mortality (obs): 71%

— patent publication US20090133318A1, “Anthranilamide insecticides” (priority 2004, published 2009)
